Source: US9765381B2, “Mutated genes for the catalytic protein of oplophorus luciferase and use thereof” (JNC Corporation, priority 2013, dated 2017)

Legend:
[1] = system: pcDNA3-GLsp-nanoKAZ/CHO-K1 stable expressed cell line; experiment: Secretory inhibition by brefeldin A, nanoKAZ with secretory signal peptide sequence; type: cell-based, Chinese hamster; details: brefeldin A 5 μg/mL, 0-6 hours, compared to absence of brefeldin A, FIG. 3
Protocol: (§1) Using the stable expressed cell lines established in EXAMPLE 14 and EXAMPLE 15, the effect of brefeldin A that inhibits exocytosis through the trans-Golgi network by the vesicle-mediated transport was compared. Specifically, each stable expressed cell lines with 2×10^5 cells were seeded to a 6-well plate in 3 mL of Ham's F-12 medium containing 10% FBS, respectively; followed by incubation at 37° C. in a 5% CO2 incubator for 48 hours. After washing twice with 3 mL of Ham's F-12 medium containing 10% FBS, brefeldin A (manufactured by Wako Pure Chemical Industries, Ltd.) was added to the culture medium at a final concentration of 5 μg/mL. As a control experiment, cells were cultured in the absence of brefeldin A. The luminescence activity in the culture medium was determined at each incubation times at 0, 1, 3 and 6 hours, using coelenterazine as a substrate.

[2] = system: pcDNA3-nanoKAZ/CHO-K1 stable expressed cell line; experiment: Secretory inhibition by brefeldin A, nanoKAZ without secretory signal peptide sequence; type: cell-based, Chinese hamster; details: brefeldin A 5 μg/mL, 0-6 hours, FIG. 4
Protocol: as §1

[3] = Substrate specificities for amino-terminal deleted nanoKAZ; type: biochemical; details: for luminescence activity higher than that of coelenterazine: as luminescence substrate of the luciferase mutant, general description; for Relative luminescence activity (Imax) 6h-f-CTZ: substrate 6h-f-coelenterazine; for Relative luminescence activity (Imax) 6h-f-CTZ / Relative luminescence activity (Imax) bis-CTZ / Relative luminescence activity (Imax) f-CTZ / Relative luminescence activity (Imax) h-CTZ: relative to nanoKAZ with CTZ; for Relative luminescence activity (Imax) bis-CTZ: substrate bis-coelenterazine; for Relative luminescence activity (Imax) CTZ: substrate coelenterazine (CTZ), culture medium of CHO-K1, pcDNA3 vectors, nanoKAZ with CTZ = 1.00; for Relative luminescence activity (Imax) f-CTZ: substrate f-coelenterazine; for Relative luminescence activity (Imax) h-CTZ: substrate h-coelenterazine
Protocol: The enzyme solutions of amino-terminal deleted nanoKAZ used for substrate specificity studies were prepared by the method described in EXAMPLE 12, using pcDNA3 vectors (pcDNA3-ΔN2T-nKAZ, pcDNA3-ΔN3L-nKAZ, pcDNA3-ΔN4E-nKAZ, pcDNA3-ΔN5D-nKAZ and pcDNA3-ΔN6F-nKAZ) for expression of the amino-terminal deletions, which were obtained by the method described in EXAMPLE 11. After transfection to CHO-K1 cells and then incubation for 48 hours, the culture medium were collected and stored in a frozen state. The coelenterazine analogues used for substrate specificity studies were synthesized by the methods described in publications, respectively. Specifically, coelenterazine (CTZ), h-coelenterazine (h-CTZ) and f-coelenterazine (f-CTZ), 6h-f-coelenterazine (6h-f-CTZ) were synthesized by the method described in Inouye et al (2013) Biochem. Biophys. Res. Commun. 437: 23-28, and bis-coelenterazine (bis-CTZ) was synthesized by the method described in Nakamura et al, (1997) Tetrahedron Lett. 38: 6405-6406.
A luminescence reaction was started by the addition of 2 μL of the freeze-thawed culture medium on ice to 100 μL of TE containing 1 μg of coelenterazine or its analogue. The luminescence activities were measured for 10 seconds using a luminometer (manufactured by Atto Inc.: AB2200), and the maximum intensity of luminescence (Imax) of nanoKAZ was shown as a relative luminescence activity using coelenterazine as a substrate.

[4] = Luminescence activity of amino-terminal deleted nanoKAZ and ZZ-fused amino-terminal deleted nanoKAZ in crude enzyme solution; type: biochemical; details: expressed in E. coli BL21, crude enzyme solution, coelenterazine substrate, nanoKAZ = 100; for Relative luminescence activity (%, Imax) pCold-ZZ-P-: ZZ-fused (pCold-ZZ-P- vector); for Relative luminescence activity (%, Imax) pCold-: pCold- vector
Protocol: In order to express the amino-terminal deleted nanoKAZ in E. coli, the recombinant plasmid obtained in EXAMPLE 4 was used. The E. coli BL21 strain (Novagen, Madison, Wis.) was used as a host cell. The BL21 strain carrying the recombinant plasmid was incubated in 5 mL of Luria-Bertani medium (hereinafter designated as LB medium) containing ampicillin (50 μg/mL) at 37° C. for 18 hours. The seed culture of 0.1 mL was inoculated to 10 mL of LB medium and incubated for 3 hours, followed by cooling in an ice-water bath for 1 hour. IPTG was added to the culture medium at a final concentration of 0.1 mM, followed by incubation at 15° C. for further 17 hours. After completion of the incubation, 1 mL of the culture medium was collected by centrifugation at 10,000 rpm for 2 minutes. The collected E. coli cells were suspended in 0.5 mL of 30 mM Tris-HCl (pH 7.6)-10 mM EDTA (manufactured by Wako Pure Chemical Industries, Ltd.) (hereinafter designated as TE). The E. coli cells were disrupted by sonication for 3 seconds using a Branson model 250 sonifire (Danbury, Conn.) to give a crude enzyme solution. Then, 5 μL of the crude enzyme solution was analyzed by SDS-PAGE to confirm the protein expression (FIG. 1).
To express the ZZ-fused amino-terminal deleted nanoKAZ in E. coli, the recombinant plasmid obtained in EXAMPLE 6 was used. Crude enzyme solutions were prepared using a similar manner to EXAMPLE 5 using the E. coli BL21 strain (Novagen, Madison, Wis.) as a host cell. Then, 5 μL of the crude enzyme solution obtained was subjected to SDS-PAGE analysis to confirm the protein expression (FIG. 2).
The crude enzyme solutions obtained in EXAMPLE 5 and EXAMPLE 7 were allowed to stand in an ice-water for over 1 hour and then diluted to 50-fold in TE. By addition of 1 μL each of the crude enzyme solutions to 100 μL of TE containing 1 μg of coelenterazine (manufactured by JNC Corp.), a luminescence reaction was started. The luminescence activity was measured for 60 seconds using a luminometer (manufactured by Atto AB2200); the maximum intensity of luminescence (Imax) is given as a percentage (%).

[5] = system: CHO-K1 cells; experiment: Luminescence activity of amino-terminal deleted nanoKAZ expressed in animal cultured cells (culture medium and cell extracts); type: cell-based, Chinese hamster; details: coelenterazine; for Relative luminescence activity (%, Imax) pcDNA3- Cell extracts / Relative luminescence activity (%, Imax) pcDNA3- Culture medium: lacking secretory signal peptide; for Relative luminescence activity (%, Imax) pcDNA3- Cell extracts / Relative luminescence activity (%, Imax) pcDNA3-GLsp- Cell extracts: CHO-K1, cell extracts; for Relative luminescence activity (%, Imax) pcDNA3- Culture medium / Relative luminescence activity (%, Imax) pcDNA3-GLsp- Culture medium: CHO-K1, culture medium; for Relative luminescence activity (%, Imax) pcDNA3-GLsp- Cell extracts / Relative luminescence activity (%, Imax) pcDNA3-GLsp- Culture medium: with Gaussia luciferase secretory signal peptide
Protocol: Chinese hamster ovary cell line CHO-K1 was cultured in Ha F-12 medium (manufactured by Wako Pure Chemical Industries, Ltd.) supplemented with 10% (v/v) fetal bovine serum (manufactured by Biowest Inc.) (hereinafter sometimes referred to as Ham's F-12 medium). The CHO-K1 cells were seeded in a 6-well plate in 1×10^5 cells/well/2 mL medium (n=2) and cultured in an incubator at 37° C. in 5% (v/v) CO2. After 24 hours, the purified recombinant plasmid was transfected to CHO-K1 cells using a FuGene HD transfection kit (manufactured by Promega Corp.) and the cells were provided for subsequent experiment. Specifically, 1 μg of the recombinant plasmid, 0.1 μg of the internal standard vector pGL4.13 [Luc2/sv40] and 3 μL of FuGene HD were added to 100 μL of the medium and allowed to stand at room temperature for 15 minutes. Subsequently, 100 μL, of the DNA-FuGene complex was added to the cells in the 6-well plate. After incubation for 44 hours, the culture medium was collected. On the other hand, the cells expressed the KAZ mutants were washed 3 times with 3 mL of 1×PBS, then suspended in 1 mL of 1×PBS and disrupted by sonication on ice. The resultant cell extracts of nanoKAZ deletion mutants was used as enzyme solutions.
Culture media containing the secreted amino-terminal deleted nanoKAZ and cell extracts of amino-terminal deleted nanoKAZ as the enzyme solutions were prepared in the same manner as in EXAMPLE 10.
After adding of 5 μL each of the culture media and cell extracts obtained in EXAMPLE 10 and EXAMPLE 12, respectively, to 100 μL of TE containing 1 μg of coelenterazine (manufactured by JNC Corp.), a luminescence reaction was started. The luminescence activity was measured for 60 seconds using a luminometer (manufactured by Atto Inc.: AB2200), and the maximum intensity of luminescence (Imax) was given as a percentage (%).

Relative luminescence activity (%, Imax) pCold-ZZ-P- [4]	Relative luminescence activity (%, Imax) pCold- [4]	Compound	secretion of nanoKAZ into the culture medium in the presence of brefeldin A [1]	secretion of nanoKAZ into the culture medium in the presence of brefeldin A [2]	luminescence activity higher than that of coelenterazine [3]	Relative luminescence activity (%, Imax) pcDNA3- Cell extracts [5]	Relative luminescence activity (%, Imax) pcDNA3- Culture medium [5]	Relative luminescence activity (%, Imax) pcDNA3-GLsp- Cell extracts [5]	Relative luminescence activity (%, Imax) pcDNA3-GLsp- Culture medium [5]	Relative luminescence activity (Imax) 6h-f-CTZ [3]	Relative luminescence activity (Imax) bis-CTZ [3]	Relative luminescence activity (Imax) CTZ [3]	Relative luminescence activity (Imax) f-CTZ [3]	Relative luminescence activity (Imax) h-CTZ [3]	activity compared with nanoKAZ (in words) ([3]; substrates bis-CTZ, 6h-f-CTZ, h-CTZ and f-CTZ)
		C[C@H]1CCC/C=C/[C@@H]2C[C@H](O)C[C@H]2[C@H](O)/C=C/C(=O)O1 [brefeldin A]	markedly inhibited	secreted											
		O=c1c(Cc2ccc(F)cc2)nc2c(Cc3ccccc3)[nH]c(-c3ccc(O)cc3)cn1-2 [f-CTZ, f-coelenterazine, reference compound]			10 times										
93.4%		ΔN2T-nKAZ: nanoKAZ (SEQ ID NO: 2) with deletion of the phenylalanine residue at the first amino acid; SEQ ID NO: 4				23.3%	93.4%	3.4%	97.0%	8.02	8.99	1.03	15.04	13.38	higher activity than nanoKAZ
73.6%	87.0%	ΔN5D-nKAZ: nanoKAZ with 4 amino-terminal amino acids deleted; SEQ ID NO: 10				1.5%	0.1%	1.7%	56.2%	0.01	0.01	0.01	0.02	0.01	
		O=c1c(Cc2ccc(F)cc2)nc2c(Cc3ccccc3)[nH]c(-c3ccccc3)cn1-2 [6h-f-coelenterazine, reference compound]			approximately 10 times										
		Oc1ccc(-c2cn3c(O)c(Cc4ccccc4)nc3c(Cc3ccccc3)n2)cc1 [h-CTZ, h-coelenterazine, reference compound]			10 times										
82.0%		ΔN3L-nKAZ: nanoKAZ with 2 amino-terminal amino acids deleted; SEQ ID NO: 6				16.2%	50.6%	4.4%	87.7%	5.25	5.39	0.50	9.88	9.39	
		bis-coelenterazine [reference compound]			approximately 10 times										
74.0%		ΔN4E-nKAZ: nanoKAZ with 3 amino-terminal amino acids deleted; SEQ ID NO: 8				9.7%	4.6%	2.9%	60.5%	0.36	0.35	0.05	0.70	0.58	
100%	100%	nanoKAZ: mutated 19 kDa catalytic protein of Oplophorus luciferase with 16 mutations, amino acid sequence SEQ ID NO: 2 [reference compound]				29.4%	100%	4.8%	100%	7.00	6.93	1.00	12.65	11.76	
